pIC50: −log10 of the molar value. Like-named read-outs stand apart in the source and are kept apart here. Starred links: 1 amine or outer side, 2 acyl side, 3 side chain; linkers in the order of their positions; H or OH if unused. Positions of bridges follow the written chain, without caps; N, C: chain ends. Non-standard residues stand in square brackets, D forms with d. Residues, ends and D or L forms follow the SMILES beside them. Groups on a side chain read outwards from the residue. *: point of attachment. Trp(1-Me) = Cn1cc(C[C@H](N)C(=O)O)c2ccccc21; C18 diacid = O=C(O)CCCCCCCCCCCCCCCCC(=O)*; γGlu = O=C(O)[C@H](CCC(=O)[*:2])N[*:1]; Sar = CNCC(=O)O
Legend:
[1] = tested on: classical complement pathway; assay: In vitro haemolysis assay (inhibition of classical complement pathway); type: cell-based, human; conditions: for IC50: Table 3
Description: Method The in vitro effect of test compounds was assessed by measuring their inhibitory effect of the classical complement pathway in a haemolysis assay. Briefly, test compounds and reference compounds were dissolved in DMSO and diluted in Tris/Casein Assay Buffer (10 mM Tris, 145 mM NaCl, 0.5 mM MgCl2, 0.15 mM CaCl2, and 0.1% W/V Casein, adjusted to pH 7.4) as 9-point serial dilutions in a 96 well plate. Sensitized sheep red blood cells (RBC) coated with rabbit anti-sheep erythrocyte antiserum (Complement Technology, Inc., TX, USA) were washed in Tris/Casein Assay Buffer. 50 μL from each well of diluted compound was added to a 96-well plate containing 50 μL diluted human serum (Complement Technology, Inc., TX, USA) and incubated for 15 minutes at room temperature. The serum dilution factor was optimized for every serum batch to obtain 70-90% of maximal haemolysis using the protocol. Then 50 μL sensitized sheep red blood cells were added to all wells ([…] per well). After 30 minutes of incubation at 37° C. with gentle agitation, the reaction was stopped by addition of 50 μL Tris STOP Buffer per well (10 mM EDTA, 10 mM Tris, 145 mM NaCl adjusted to pH 7.4). The RBCs were then removed by centrifugation and the resulting supernatant measured for hemolysis by absorbance at 405 nm. The response was normalized relative to a positive and negative control (vehicle) to calculate the IC50 from the concentration response curve using the 4-parameter logistic (4PL) nonlinear model for curve fitting.

[2] = Solubility test at 10 mg/mL (visual inspection and light scattering); type: physicochemical; conditions: for Solubility, Condition 1 Acetate pH 4: 10 mg/mL compound in 100 mM acetate pH 4; for Solubility, Condition 2 Acetate pH 5: 10 mg/mL compound in 100 mM acetate pH 5; for Solubility, Condition 3 Phosphate pH 6: 10 mg/mL compound in 100 mM phosphate pH 6; for Solubility, Condition 4 Phosphate pH 7: 10 mg/mL compound in 100 mM phosphate pH 7; for Solubility, Condition 5 Phosphate pH 7.5: 10 mg/mL compound in 100 mM phosphate pH 7.5
Description: The solubility of compounds was assessed by measuring light scattering over a pH interval from pH 4 to pH 7.5.
Compounds were dissolved in a stock solution of 20 mg/mL in H2O at pH 2.5 or pH 10.
These stock solutions were diluted 1:1 with 200 mM buffered solution to reach a final solution of 10 mg/mL compound in 100 mM buffer. The 5 investigated conditions were (1) acetate pH 4.0, (2) acetate pH 5.0, (3) phosphate pH 6.0, (4) phosphate pH 7 and (5) phosphate pH 7.5.
Visual inspection included manually checking the 96 well plate for wells that are clear or non-clear. In addition to this a picture of the 96 well plate is taken.
Absorbance was measured at four wavelengths: 280 nm, 325 nm, 340 nm and 360 nm in an UV transparent 96 well microplate in a SpectraMax 190 microplate reader (Molecular Devices).
The criteria for this was a combination of visual inspection and light scattering not exceeding 0.1 AU, where values below 0.1 AU are good in visually clear samples. […]

[3] = Table 4, valine 3 versus isoleucine 3 pairs, read-out: CP hemolysis IC50
[4] = human serum, sensitized sheep red blood cells, read-out: IC50[nM], in vitro analysis of inhibition of hemolysis

SMILES: CC[C@H](C)[C@H](NC(C)=O)C(=O)N[C@H]1CSSC[C@@H](C(=O)N[C@H](C(N)=O)[C@@H](C)O)NC(=O)[C@H](CCCNC(=N)N)NC(=O)[C@H](Cc2c[nH]cn2)NC(=O)[C@H](CCC(=O)O)NC(=O)CNC(=O)[C@H](Cc2c[nH]c3ccccc23)NC(=O)[C@H](CC(=O)O)NC(=O)[C@H](CCC(N)=O)NC(=O)[C@H](Cc2c[nH]c3ccccc23)NC(=O)[C@H](C(C)C)NC1=O [A, reference compound] (Ac-ICVWQDWGEHRCT-NH2; disulfide 2-12)
- pIC50 [1, 3]: 6.46
- pIC50 ([1]; Table 5, different residues at position 3 of Ac-IC(1)XWQDWGEHRC(1)T-NH2, read-out: IC50, CP hemolysis): 6.46

SMILES: CC[C@H](C)[C@H](NC(C)=O)C(=O)N[C@H]1CSSC[C@@H](C(=O)N[C@H](C(N)=O)[C@@H](C)O)NC(=O)[C@H](CCCNC(=N)N)NC(=O)[C@H](Cc2c[nH]cn2)NC(=O)[C@H](Cc2c[nH]cn2)NC(=O)CNC(=O)[C@H](Cc2c[nH]c3ccccc23)NC(=O)[C@H](CC(=O)O)NC(=O)[C@H](CCC(N)=O)NC(=O)[C@H](C(C)C)NC(=O)[C@H](C(C)C)NC1=O [Ac-compstatin, reference compound]
- IC50 ([1]; cells that print μM, read-out: IC50, in vitro analysis of inhibition of hemolysis): > 5 µM

SMILES: CC[C@H](C)[C@H](NC(C)=O)C(=O)N[C@H]1CSSC[C@@H](C(=O)N[C@H](C(N)=O)[C@@H](C)O)NC(=O)[C@H](CCCNC(=N)N)NC(=O)[C@H](Cc2c[nH]cn2)NC(=O)[C@H](CO)NC(=O)CNC(=O)[C@H](Cc2c[nH]c3ccccc23)NC(=O)[C@H](CC(=O)O)NC(=O)[C@H](CCC(N)=O)NC(=O)[C@H](Cc2c[nH]c3ccccc23)NC(=O)[C@H](C(C)C)NC1=O [B, reference compound] (Ac-ICVWQDWGSHRCT-NH2; disulfide 2-12)
- pIC50 [1, 3]: 6.44

SMILES: CC[C@H](C)[C@H](NC(=O)[C@H](C)NC(=O)[C@H](CO)NC(=O)[C@H](CO)NC(=O)[C@H](CCC(=O)O)NC(C)=O)C(=O)N[C@H]1CSSC[C@@H](C(=O)N[C@H](C(N)=O)[C@@H](C)O)NC(=O)[C@H](CCCNC(=N)N)NC(=O)[C@H](Cc2c[nH]cn2)NC(=O)[C@H](CCC(=O)O)NC(=O)CNC(=O)[C@H](Cc2c[nH]c3ccccc23)NC(=O)[C@H](CC(=O)O)NC(=O)[C@H](CCC(N)=O)NC(=O)[C@H](Cc2c[nH]c3ccccc23)NC(=O)[C@H](C(C)C)NC1=O [C, reference compound] (Ac-ESSAICVWQDWGEHRCT-NH2; disulfide 6-16)
- pIC50 [1, 3]: 6.52

SMILES: CC[C@H](C)[C@H](NC(C)=O)C(=O)N[C@H]1CSSC[C@@H](C(=O)N[C@H](C(N)=O)[C@@H](C)O)NC(=O)[C@H](CCCNC(=N)N)NC(=O)[C@H](Cc2c[nH]cn2)NC(=O)[C@H](C)NC(=O)CNC(=O)[C@H](Cc2c[nH]c3ccccc23)NC(=O)[C@H](CC(=O)O)NC(=O)[C@H](CCC(N)=O)NC(=O)[C@H](Cc2c[nH]c3ccccc23)NC(=O)[C@H](C(C)C)NC1=O [Compound 4W9A, reference compound]
- pIC50 ([1]; Table 2, human serum, sensitized sheep red blood cells, read-out: CP hemolysis IC50): 6.60
- IC50 [1, 4]: < 0.5 µM

SMILES: CC[C@H](C)[C@H](NC(C)=O)C(=O)N[C@H]1CSSC[C@@H](C(=O)N[C@H](C(N)=O)[C@@H](C)O)NC(=O)[C@H](CCCNC(=N)N)NC(=O)[C@H](Cc2c[nH]cn2)NC(=O)[C@H](CCCCN)NC(=O)CNC(=O)[C@H](Cc2c[nH]c3ccccc23)NC(=O)[C@H](CC(=O)O)NC(=O)[C@H](CCC(N)=O)NC(=O)[C@H](Cc2c[nH]c3ccccc23)NC(=O)[C@H]([C@@H](C)CC)NC1=O [Compound 5] (Ac-ICIWQDWGKHRCT-NH2; disulfide 2-12)
- IC50 [1, 4]: < 0.25 µM

SMILES: CC[C@H](C)[C@H](NC(C)=O)C(=O)N[C@H]1CSSC[C@@H](C(=O)N[C@H](C(N)=O)[C@@H](C)O)NC(=O)[C@H](CCCNC(=N)N)NC(=O)[C@H](Cc2c[nH]cn2)NC(=O)[C@H](CO)NC(=O)CNC(=O)[C@H](Cc2c[nH]c3ccccc23)NC(=O)[C@H](CC(=O)O)NC(=O)[C@H](CCC(N)=O)NC(=O)[C@H](Cc2c[nH]c3ccccc23)NC(=O)[C@H]([C@@H](C)CC)NC1=O [Compound 6] (Ac-ICIWQDWGSHRCT-NH2; disulfide 2-12)
- IC50 [1, 4]: < 0.25 µM
- pIC50 [1, 3]: 6.85

SMILES: CC[C@H](C)[C@@H]1NC(=O)[C@@H](NC(=O)[C@H](Cc2ccc(O)cc2)NC(=O)[C@H](C)NC(=O)[C@H](CO)NC(C)=O)CSSC[C@@H](C(=O)N(C)CC(=O)N[C@@H](CCC(=O)O)C(=O)N[C@@H](CCCCNC(=O)CC[C@H](NC(=O)CNC(=O)[C@H](CCCCN)NC(=O)CC[C@H](NC(=O)CCCCCCCCCCCCCCCCC(=O)O)C(=O)O)C(=O)O)C(N)=O)NC(=O)[C@H](CCCNC(=N)N)NC(=O)[C@H](Cc2c[nH]cn2)NC(=O)[C@H](CCC(=O)O)NC(=O)CNC(=O)[C@H](Cc2c[nH]c3ccccc23)NC(=O)[C@H](CC(=O)O)NC(=O)[C@H](CCC(N)=O)NC(=O)[C@H](Cc2cn(C)c3ccccc23)NC1=O [Compound 105] (Ac-SAYCI[Trp(1-Me)]QDWGEHRC[Sar]EK([γGlu-Gly-Lys-γGlu-C18 diacid])-NH2; disulfide 4-14)
- Solubility, Condition 1 Acetate pH 4 [2]: − (denotes lack of solubility at the given condition, as UV absorbance at 340 nm exceeds 0.1 AU and/or it is visibly turbid or contains particles.)
- Solubility, Condition 2 Acetate pH 5 [2]: − (denotes lack of solubility at the given condition, as UV absorbance at 340 nm exceeds 0.1 AU and/or it is visibly turbid or contains particles.)
- Solubility, Condition 3 Phosphate pH 6 [2]: + (denotes solubility at the given condition, as determined by UV absorbance being less than 0.1 AU at 340 nm and the sample being clear when manually inspected.)
- Solubility, Condition 4 Phosphate pH 7 [2]: + (denotes solubility at the given condition, as determined by UV absorbance being less than 0.1 AU at 340 nm and the sample being clear when manually inspected.)
- Solubility, Condition 5 Phosphate pH 7.5 [2]: + (denotes solubility at the given condition, as determined by UV absorbance being less than 0.1 AU at 340 nm and the sample being clear when manually inspected.)

SMILES: CC[C@H](C)[C@@H]1NC(=O)[C@@H](NC(=O)[C@H](Cc2ccc(O)cc2)NC(=O)[C@H](CCC(=O)O)NC(=O)[C@H](CO)NC(C)=O)CSSC[C@@H](C(=O)N(C)CC(=O)N[C@@H](CCC(=O)O)C(=O)NCC(=O)N[C@@H](CCC(=O)O)C(=O)N[C@@H](CCCCNC(=O)CC[C@H](NC(=O)[C@H](CCCCN)NC(=O)CC[C@H](NC(=O)CCCCCCCCCCCCCCCCC(=O)O)C(=O)O)C(=O)O)C(N)=O)NC(=O)[C@H](CCCNC(=N)N)NC(=O)[C@H](Cc2c[nH]cn2)NC(=O)[C@H](CCC(=O)O)NC(=O)CNC(=O)[C@H](Cc2c[nH]c3ccccc23)NC(=O)[C@H](CC(=O)O)NC(=O)[C@H](CCC(N)=O)NC(=O)[C@H](Cc2cn(C)c3ccccc23)NC1=O [Compound 116] (Ac-SEYCI[Trp(1-Me)]QDWGEHRC[Sar]EGEK([γGlu-Lys-γGlu-C18 diacid])-NH2; disulfide 4-14)
- Solubility, Condition 1 Acetate pH 4 [2]: − (denotes lack of solubility at the given condition, as UV absorbance at 340 nm exceeds 0.1 AU and/or it is visibly turbid or contains particles.)
- Solubility, Condition 2 Acetate pH 5 [2]: − (denotes lack of solubility at the given condition, as UV absorbance at 340 nm exceeds 0.1 AU and/or it is visibly turbid or contains particles.)
- Solubility, Condition 3 Phosphate pH 6 [2]: + (denotes solubility at the given condition, as determined by UV absorbance being less than 0.1 AU at 340 nm and the sample being clear when manually inspected.)
- Solubility, Condition 4 Phosphate pH 7 [2]: + (denotes solubility at the given condition, as determined by UV absorbance being less than 0.1 AU at 340 nm and the sample being clear when manually inspected.)
- Solubility, Condition 5 Phosphate pH 7.5 [2]: + (denotes solubility at the given condition, as determined by UV absorbance being less than 0.1 AU at 340 nm and the sample being clear when manually inspected.)

Source: patent US20220306695A1, “COMPSTATIN ANALOGUES AND THEIR MEDICAL USES” (priority 2019, published 2022)
